Test results: BindingDB's records for patent US11547697 (Millennium Pharmaceuticals, 2023)

Columns and labels:
Experiment in all cases: Inhibition Assay of PI3K
[1] = target: Phosphatidylinositol 4,5-bisphosphate 3-kinase catalytic subunit beta isoform (Homo sapiens, UniProt P42338)
[2] = target: Phosphatidylinositol 4,5-bisphosphate 3-kinase catalytic subunit gamma isoform (Homo sapiens, UniProt P48736)
[3] = target: Phosphatidylinositol 4,5-bisphosphate 3-kinase catalytic subunit alpha isoform (Homo sapiens, UniProt P42336)
[4] = target: T1, Phosphatidylinositol 4,5-bisphosphate 3-kinase catalytic subunit delta isoform (Homo sapiens, UniProt O00329)
T1 sequence (O00329 whole entry): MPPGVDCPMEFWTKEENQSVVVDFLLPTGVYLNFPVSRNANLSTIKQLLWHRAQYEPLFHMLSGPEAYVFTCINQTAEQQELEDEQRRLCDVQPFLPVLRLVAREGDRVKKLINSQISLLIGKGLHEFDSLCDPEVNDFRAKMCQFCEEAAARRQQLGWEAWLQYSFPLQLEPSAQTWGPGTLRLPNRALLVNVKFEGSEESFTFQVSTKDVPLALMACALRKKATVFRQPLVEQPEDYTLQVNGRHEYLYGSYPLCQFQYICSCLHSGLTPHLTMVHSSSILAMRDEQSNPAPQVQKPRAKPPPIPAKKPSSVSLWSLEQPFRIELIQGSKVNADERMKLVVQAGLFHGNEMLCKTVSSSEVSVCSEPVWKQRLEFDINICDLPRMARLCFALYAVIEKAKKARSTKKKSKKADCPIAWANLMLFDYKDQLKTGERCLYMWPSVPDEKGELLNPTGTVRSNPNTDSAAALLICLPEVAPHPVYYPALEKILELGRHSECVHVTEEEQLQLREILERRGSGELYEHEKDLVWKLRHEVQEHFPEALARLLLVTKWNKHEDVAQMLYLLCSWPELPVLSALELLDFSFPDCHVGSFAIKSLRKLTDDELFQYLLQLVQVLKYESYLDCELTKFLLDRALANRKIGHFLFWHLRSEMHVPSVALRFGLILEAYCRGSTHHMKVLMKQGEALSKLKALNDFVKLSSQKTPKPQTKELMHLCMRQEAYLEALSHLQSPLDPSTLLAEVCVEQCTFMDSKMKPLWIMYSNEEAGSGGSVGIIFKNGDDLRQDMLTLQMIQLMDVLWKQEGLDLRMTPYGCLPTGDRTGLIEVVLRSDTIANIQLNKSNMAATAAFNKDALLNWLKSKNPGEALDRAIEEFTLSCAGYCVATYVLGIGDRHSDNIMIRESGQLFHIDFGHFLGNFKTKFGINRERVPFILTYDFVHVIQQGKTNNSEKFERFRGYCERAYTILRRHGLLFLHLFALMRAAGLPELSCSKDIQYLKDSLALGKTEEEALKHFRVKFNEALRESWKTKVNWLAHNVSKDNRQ

Sequence of Phosphatidylinositol 4,5-bisphosphate 3-kinase catalytic subunit gamma isoform (P48736 whole entry, canonical isoform): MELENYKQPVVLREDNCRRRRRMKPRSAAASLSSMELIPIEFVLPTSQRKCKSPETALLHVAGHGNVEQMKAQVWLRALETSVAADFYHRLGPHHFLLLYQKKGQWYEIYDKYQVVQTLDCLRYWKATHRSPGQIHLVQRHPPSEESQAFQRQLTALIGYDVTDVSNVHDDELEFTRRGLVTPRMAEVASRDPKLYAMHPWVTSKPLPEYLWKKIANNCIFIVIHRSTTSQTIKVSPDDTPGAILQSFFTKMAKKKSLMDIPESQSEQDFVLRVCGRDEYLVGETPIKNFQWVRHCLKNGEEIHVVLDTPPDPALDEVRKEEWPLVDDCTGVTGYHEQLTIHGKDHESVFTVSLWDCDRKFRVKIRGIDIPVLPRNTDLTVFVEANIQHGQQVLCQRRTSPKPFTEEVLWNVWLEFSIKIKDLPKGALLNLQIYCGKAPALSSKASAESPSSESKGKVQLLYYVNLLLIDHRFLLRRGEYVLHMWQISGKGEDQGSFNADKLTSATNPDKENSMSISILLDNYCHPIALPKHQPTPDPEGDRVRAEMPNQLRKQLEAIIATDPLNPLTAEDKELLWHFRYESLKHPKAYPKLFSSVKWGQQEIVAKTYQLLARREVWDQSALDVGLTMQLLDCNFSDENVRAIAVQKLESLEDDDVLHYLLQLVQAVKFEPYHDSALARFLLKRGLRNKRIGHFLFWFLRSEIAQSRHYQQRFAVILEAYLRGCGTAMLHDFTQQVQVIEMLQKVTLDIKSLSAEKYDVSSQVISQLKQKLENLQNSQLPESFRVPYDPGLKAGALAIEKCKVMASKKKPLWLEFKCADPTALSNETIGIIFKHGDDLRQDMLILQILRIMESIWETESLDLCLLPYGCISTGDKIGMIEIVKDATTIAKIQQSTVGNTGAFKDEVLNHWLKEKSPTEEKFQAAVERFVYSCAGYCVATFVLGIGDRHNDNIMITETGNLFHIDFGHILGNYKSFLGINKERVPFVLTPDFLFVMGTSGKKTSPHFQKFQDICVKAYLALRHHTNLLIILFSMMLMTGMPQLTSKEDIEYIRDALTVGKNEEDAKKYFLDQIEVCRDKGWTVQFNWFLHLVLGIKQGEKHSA
Sequence of Phosphatidylinositol 4,5-bisphosphate 3-kinase catalytic subunit beta isoform (P42338 whole entry, canonical isoform): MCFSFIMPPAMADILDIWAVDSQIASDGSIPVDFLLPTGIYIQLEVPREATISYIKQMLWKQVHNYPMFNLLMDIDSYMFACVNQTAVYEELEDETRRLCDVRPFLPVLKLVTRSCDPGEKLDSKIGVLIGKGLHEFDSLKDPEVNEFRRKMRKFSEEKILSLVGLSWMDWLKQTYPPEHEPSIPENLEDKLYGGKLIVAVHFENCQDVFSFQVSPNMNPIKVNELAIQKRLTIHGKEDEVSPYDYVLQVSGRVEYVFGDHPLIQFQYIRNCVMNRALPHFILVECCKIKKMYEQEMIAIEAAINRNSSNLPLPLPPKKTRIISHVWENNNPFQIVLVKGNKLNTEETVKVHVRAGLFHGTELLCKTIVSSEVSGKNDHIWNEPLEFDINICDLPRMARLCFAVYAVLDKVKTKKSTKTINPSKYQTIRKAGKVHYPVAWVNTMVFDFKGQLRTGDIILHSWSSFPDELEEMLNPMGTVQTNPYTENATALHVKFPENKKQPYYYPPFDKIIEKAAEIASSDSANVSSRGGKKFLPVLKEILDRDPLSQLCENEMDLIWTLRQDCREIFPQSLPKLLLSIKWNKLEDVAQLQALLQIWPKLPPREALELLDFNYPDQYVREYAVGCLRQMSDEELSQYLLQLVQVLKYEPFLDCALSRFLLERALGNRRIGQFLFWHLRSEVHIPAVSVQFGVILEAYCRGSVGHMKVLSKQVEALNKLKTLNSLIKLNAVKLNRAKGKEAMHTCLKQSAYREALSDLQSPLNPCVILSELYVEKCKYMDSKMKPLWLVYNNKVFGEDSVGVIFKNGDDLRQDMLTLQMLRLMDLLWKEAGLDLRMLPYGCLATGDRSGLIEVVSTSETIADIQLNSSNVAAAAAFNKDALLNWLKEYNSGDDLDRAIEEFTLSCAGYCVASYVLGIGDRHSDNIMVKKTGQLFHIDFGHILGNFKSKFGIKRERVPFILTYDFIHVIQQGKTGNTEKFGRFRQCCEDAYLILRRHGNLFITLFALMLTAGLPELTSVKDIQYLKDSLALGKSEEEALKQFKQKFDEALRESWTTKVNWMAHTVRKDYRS
Sequence of Phosphatidylinositol 4,5-bisphosphate 3-kinase catalytic subunit alpha isoform (P42336 whole entry, canonical isoform): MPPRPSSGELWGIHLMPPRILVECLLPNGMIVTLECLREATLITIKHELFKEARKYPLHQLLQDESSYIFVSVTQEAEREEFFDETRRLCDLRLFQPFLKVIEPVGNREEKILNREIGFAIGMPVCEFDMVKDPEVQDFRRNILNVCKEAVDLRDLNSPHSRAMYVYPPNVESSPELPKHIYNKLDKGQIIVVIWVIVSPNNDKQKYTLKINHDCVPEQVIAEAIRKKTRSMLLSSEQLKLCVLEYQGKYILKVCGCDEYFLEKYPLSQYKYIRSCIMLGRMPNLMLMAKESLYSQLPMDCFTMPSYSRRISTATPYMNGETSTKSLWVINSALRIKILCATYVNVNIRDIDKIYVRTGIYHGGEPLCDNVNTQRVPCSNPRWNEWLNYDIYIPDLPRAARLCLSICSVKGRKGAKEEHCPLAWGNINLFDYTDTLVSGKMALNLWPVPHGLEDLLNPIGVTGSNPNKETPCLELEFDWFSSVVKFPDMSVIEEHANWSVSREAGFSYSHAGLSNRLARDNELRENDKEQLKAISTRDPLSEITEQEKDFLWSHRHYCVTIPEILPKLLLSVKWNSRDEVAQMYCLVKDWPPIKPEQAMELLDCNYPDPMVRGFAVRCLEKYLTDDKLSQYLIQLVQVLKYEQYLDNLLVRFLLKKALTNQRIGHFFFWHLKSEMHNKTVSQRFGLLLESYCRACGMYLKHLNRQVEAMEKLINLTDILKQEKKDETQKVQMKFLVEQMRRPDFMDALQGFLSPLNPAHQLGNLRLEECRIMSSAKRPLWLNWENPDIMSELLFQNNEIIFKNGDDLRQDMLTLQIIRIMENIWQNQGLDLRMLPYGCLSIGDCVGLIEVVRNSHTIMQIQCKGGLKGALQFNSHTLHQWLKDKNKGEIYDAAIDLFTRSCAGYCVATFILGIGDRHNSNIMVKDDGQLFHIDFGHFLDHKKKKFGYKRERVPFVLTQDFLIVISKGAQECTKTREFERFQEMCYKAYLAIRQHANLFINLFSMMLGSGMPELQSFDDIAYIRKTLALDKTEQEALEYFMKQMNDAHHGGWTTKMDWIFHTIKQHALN

Row | IC50 [1] [µM] | IC50 [2] [µM] | IC50 [3] [µM] | IC50 [4] [µM] | Structure (SMILES)
1 | > 10 | > 10 | > 10 | > 10 | Nc1nsc2ccc(-c3ccc4nccc(-c5ccncc5)c4c3)cc12 [US11547697, Compound 12]
2 | > 10 | > 10 | > 10 | > 10 | CC(=O)Nc1cn2cc(-c3ccc4nccc(-c5ccncc5)c4c3)ccc2n1 [US11547697, Compound 19]
3 | > 10 | > 10 | > 10 | > 10 | Nc1nc2cc(-c3cnc4ncc(-c5ccncc5)n4c3)ccc2o1 [US11547697, Compound 61]
4 | > 10 | > 10 | > 10 | > 10 | Cc1nc2ccc(-c3ccc4oc(N)nc4c3)cn2c1C(=O)N1CCN(C)CC1 [US11547697, Compound 91]
5 | > 10 | > 10 | > 10 | > 10 | Cc1nc2ccc(-c3ccc4oc(N)nc4c3)cn2c1C(=O)N1CCOCC1 [US11547697, Compound 92]
6 | > 10 | > 10 | > 10 | > 10 | Nc1nc2cc(-c3cn4c(C(=O)N5CCOCC5)cnc4cn3)ccc2o1 [US11547697, Compound 122]
7 | > 10 | > 10 | > 10 | > 10 | CC(=O)Nc1nc2ccc(-c3nc(N4CCOCC4)c4sc(CN5CCN(S(C)(=O)=O)CC5)cc4n3)cc2s1 [US11547697, Compound 130]
8 | > 10 | > 10 | > 10 | > 10 | CC(=O)Nc1nc2cc(-c3ccc4oc(N)nc4c3)ccc2o1 [US11547697, Compound 244]
9 | > 10 | > 10 | > 10 | > 10 | Nc1nc2ccc(-c3ccc4nc(N)oc4c3)cc2o1 [US11547697, Compound 246]
10 |  |  | > 10 | > 10 | Nc1cn2cc(-c3ccc4nc(N)oc4c3)ccc2n1 [US11547697, Compound 247]
11 | > 10 |  | > 10 | > 10 | CC(=O)Nc1nc2cc(-c3ccc4oc(N)nc4c3)ccc2s1 [US11547697, Compound 250]
12 | > 10 | > 10 | > 10 | > 10 | Nc1nc2cc(-c3ccc4nnc(C(=O)N5CCOCC5)n4c3)ccc2o1 [US11547697, Compound 282]
13 | > 10 | > 10 |  | > 10 | CN(C)C1CCN(C(=O)c2cnc3ccc(-c4ccc5oc(N)nc5c4)cn23)CC1 [US11547697, Compound 304]
14 | > 10 | > 10 |  | > 10 | Nc1nc2ccc(-c3ccc4nnc(C(=O)N5CCCC5)n4c3)cc2o1 [US11547697, Compound 305]
15 | > 10 | > 10 | > 10 | > 10 | C[C@H]1CN(c2cnc3ccc(-c4cccc5nc(N)oc45)cc3n2)CCN1 [US11547697, Compound 310]
16 | > 10 | > 10 |  | > 10 | Cc1nc(NC(=O)N2CCC[C@H]2C(N)=O)sc1-c1ccc2oc(N)nc2c1 [US11547697, Compound 311]
17 | > 10 | > 10 | > 10 | > 10 | Nc1nc2cc(-c3ccc4ncn(C(=O)N5CCOCC5)c4c3)ccc2o1 [US11547697, Compound 317]
18 | > 10 | > 10 | > 10 | > 10 | C[C@H]1CN(c2cnc3ccc(-c4cccc5c(N)nsc45)cc3n2)CCN1 [US11547697, Compound 321]
19 |  | > 10 | > 10 | > 10 | C[C@H]1CN(c2cnc3cccc(-c4ccc5nc(N)oc5c4)c3n2)CCN1 [US11547697, Compound 343]
20 | > 10 | > 10 |  | > 10 | Nc1nc2cc(-c3ccc4ncc(C(=O)N5CCOCC5)n4c3)c(Cl)cc2o1 [US11547697, Compound 370]
21 | > 10 | > 10 |  | > 10 | Cc1c(-c2ccc3oc(N)nc3c2)ccc2ncc(N3CC(N4CCOCC4)C3)nc12 [US11547697, Compound 383]

Row | IC50 [1] [µM] | IC50 [2] [µM] | IC50 [3] [µM] | IC50 [4] [µM] | Structure (SMILES)
22 | > 10 | > 10 |  | > 10 | CCN1CCN(c2cnc3ccc(-c4ccc5oc(N)nc5c4)cc3n2)C(=O)C1 [US11547697, Compound 391]
23 | > 10 | > 10 |  | > 10 | Nc1nc2cc(-c3ccc4ncc(N5CCN(CC6CC6)CC5=O)nc4c3)ccc2o1 [US11547697, Compound 393]
24 |  | > 10 | > 10 | > 10 | O=C(c1cnc2ccc(-c3ccc4oc(Nc5ccccc5)nc4c3)cn12)N1CCOCC1 [US11547697, Compound 407]
25 | > 10 | > 10 |  | > 10 | O=C(c1cnc2ccc(-c3ccc4oc(NC5CC5)nc4c3)cn12)N1CCOCC1 [US11547697, Compound 409]
26 | > 10 | > 10 |  | > 10 | Nc1ncc(-c2ccc3ncc(C(=O)N4CCOCC4)n3c2)cc1C(F)(F)F [US11547697, Compound 410]
27 | > 10 | > 10 |  | > 10 | Nc1nc2nc(-c3ccc4ncc(C(=O)N5CCOCC5)n4c3)ccc2o1 [US11547697, Compound 412]
28 | > 10 | > 10 |  | > 10 | COc1ncc(-c2ccc3ncc(C(=O)N4CCOCC4)n3c2)cc1N [US11547697, Compound 414]
29 | > 10 | > 10 |  | > 10 | Nc1cc(-c2ccc3ncc(C(=O)N4CCOCC4)n3c2)cnc1Cl [US11547697, Compound 415]
30 | > 10 | > 10 |  | > 10 | Nc1nc2cc(-c3cc(F)c4ncc(C(=O)N5CCOCC5)n4c3)ccc2o1 [US11547697, Compound 438]
31 | > 10 | > 10 |  | > 10 | Nc1nc2ccc(-c3cc(F)c4ncc(C(=O)N5CCOCC5)n4c3)cc2o1 [US11547697, Compound 439]
32 | > 10 | > 10 |  | > 10 | COc1ccc(-c2ccc3ncc(C(=O)N4CCOCC4)n3c2)cc1S(=O)(=O)Nc1ccccc1 [US11547697, Compound 444]
33 | > 10 | > 10 |  | > 10 | CN1CCN(n2cnc3ccc(-c4ccc5oc(N)nc5c4)cc3c2=O)CC1 [US11547697, Compound 446]
34 | > 10 | > 10 |  | > 10 | O=C(c1cnc2ccc(-c3cncc(S(=O)(=O)Nc4ccccc4)c3)cn12)N1CCOCC1 [US11547697, Compound 447]
35 | > 10 | > 10 |  | > 10 | CNS(=O)(=O)c1cncc(-c2ccc3ncc(C(=O)N4CCOCC4)n3c2)c1 [US11547697, Compound 450]
36 | > 10 | > 10 |  | > 10 | CS(=O)(=O)Nc1cc(-c2ccc3ncc(C(=O)N4CCOCC4)n3c2)ccc1Cl [US11547697, Compound 460]
37 | > 10 | > 10 |  | > 10 | Nc1nsc2c(-c3ccc4ncc(C(=O)N5CCOCC5)n4c3)cccc12 [US11547697, Compound 474]
38 | > 10 | > 10 |  | > 10 | Nc1nc2cccc(-c3ccc4ncc(C(=O)N5CCOCC5)n4c3)c2s1 [US11547697, Compound 485]
39 | > 10 | > 10 |  | > 10 | Nc1nsc2cc(-c3ccc4ncc(C(=O)N5CCOCC5)n4c3)ccc12 [US11547697, Compound 489]
40 | > 10 | > 10 |  | > 10 | CC1(C)COCCN1C(=O)c1cnc2ccc(-c3ccc4oc(N)nc4c3)cn12 [US11547697, Compound 514]
41 | > 10 | > 10 |  | > 10 | O=C(c1cnc2ccc(-c3cnc(Cl)c4[nH]ncc34)cn12)N1CCOCC1 [US11547697, Compound 516]

Row | Structure (SMILES) | IC50 [1] [µM] | IC50 [2] [µM] | IC50 [3] [µM] | IC50 [4] [µM]
42 | Nc1ncc(-c2ccc3oc(N)nc3c2)cn1 [US11547697, Compound 233] | > 10 |  | > 10 | > 10
43 | Nc1nc2cc(-c3cccc4[nH]nc(N)c34)ccc2o1 [US11547697, Compound 236] | > 10 | > 10 | > 10 | 
44 | Cc1cc2oc(N)nc2cc1-c1ccc2ncc(N3CC(N4CCOCC4)C3)nc2c1 [US11547697, Compound 353] | > 10 | > 10 |  | > 10
